Earlier results as cited in patent US20080057122A1, “Acetaminophen pharmaceutical compositions” (priority 2006, published 2008).

For `CCC(=O)O[C@](Cc1ccccc1)(c1ccccc1)[C@H](C)CN(C)C` [propoxyphene], the early half-life (in vivo) is given as 6 to 12 h and the terminal half-life (in vivo) is given as “approximately 20 hours”.
For `CC(=O)Nc1ccc(O)cc1` [acetaminophen], the “time in which peak concentrations are reached” value (Darvocet-N 100 immediate release tablets) is listed as no more than 2 h.
